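Five concentrations, 48 hours, 96-well plates. Here, GI50 denotes the concentration required for 50% inhibition of growth. The concentration for full growth arrest is given as TGI.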
Experiments:
Assay in all cases: NCI anticancer screen, dose series, 48 h
[1] = test system: SN12C renal
[2] = test system: UO-31 renal
[3] = test system: IGROV1 ovarian
[4] = test system: 786-0 renal
[5] = test system: UACC-62 melanoma
[6] = test system: OVCAR-5 ovarian
[7] = test system: A498 renal
[8] = test system: TK-10 renal
[9] = test system: UACC-257 melanoma
[10] = test system: SF-268 CNS
[11] = test system: A549 NSCLC
[12] = test system: SF-539 CNS
[13] = test system: MOLT-4 leukemia
[14] = test system: SK-MEL-28 melanoma
[15] = test system: HCT-15 colon
[16] = test system: T-47D breast
[17] = test system: LOX IMVI melanoma
[18] = test system: HOP-92 NSCLC
[19] = test system: DU-145 prostate
[20] = test system: PC-3 prostate
[21] = test system: M14 melanoma
[22] = test system: SK-MEL-5 melanoma
[23] = test system: SNB-19 CNS
[24] = test system: KM12 colon
[25] = test system: MDA-MB-435
[26] = test system: NCI-H226 lung
[27] = test system: MALME-3M melanoma
[28] = test system: HS 578T breast
[29] = test system: NCI-H522 lung
[30] = test system: OVCAR-3 ovarian
[31] = test system: HCT-116 colon
[32] = test system: SW-620 colon
[33] = test system: HOP-62 NSCLC
[34] = test system: MDA-MB-231 breast
[35] = test system: BT-549 breast
[36] = test system: RPMI-8226 leukemia
[37] = test system: NCI-H23 lung
[38] = test system: SK-OV-3 ovarian
[39] = test system: NCI-H460 lung
[40] = test system: CCRF-CEM leukemia
[41] = test system: HL-60(TB) leukemia
[42] = test system: K-562 leukemia
[43] = test system: NCI/ADR-RES ovarian
[44] = test system: HT29 colon
[45] = test system: OVCAR-4 ovarian
[46] = test system: COLO 205 colon
[47] = test system: OVCAR-8 ovarian
[48] = test system: ACHN renal
[49] = test system: SF-295 CNS
[50] = test system: SR leukemia
[51] = test system: MCF7 breast
[52] = test system: CAKI-1 renal
[53] = test system: U251 CNS
[54] = test system: SK-MEL-2 melanoma
[55] = test system: SNB-75 CNS
[56] = test system: EKVX NSCLC

With `COc1ccc(N2CCN(C(=O)c3ccc(C(F)(F)F)nc3Nc3cc(Cl)ccc3C)CC2)cc1` the GI50 [1] was 11.8 µM, the TGI [1] was 24.4 µM and the GI50 [2] was 1.69 µM. The TGI [2] was 10.9 µM, the GI50 [3] was 0.0509 µM and the TGI [3] was 20.3 µM. The GI50 [4] was 4.47 µM, the TGI [4] was 16.8 µM and the GI50 [5] was 8.15 µM. The TGI [5] was 20.8 µM, the GI50 [6] was 10.6 µM and the TGI [6] was 25.1 µM. It also gave a GI50 [7] of 6.01 µM, a TGI [7] of 19.8 µM and a GI50 [8] of 15 µM. For the same compound, the TGI [8] was 34.6 µM, the GI50 [9] was 10.7 µM and the TGI [9] was 28.3 µM. It also gave a GI50 [10] of 7.04 µM, a TGI [10] of 22.4 µM and a GI50 [11] of 10.2 µM. It also gave a TGI [11] of 27.7 µM, a GI50 [12] of 10.7 µM and a TGI [12] of 24.7 µM. It also gave a GI50 [13] of 4.49 µM, a TGI [13] of 29.6 µM and a GI50 [14] of 14 µM. For the same compound, the TGI [14] was 30.3 µM, the GI50 [15] was 7.71 µM and the TGI [15] was 21.2 µM. For the same compound, the GI50 [16] was 2.8 µM, the TGI [16] was 26.2 µM and the GI50 [17] was 10.4 µM. It also gave a TGI [17] of 22.1 µM, a GI50 [18] of 1.49 µM and a TGI [18] of 7.97 µM. It also gave a GI50 [19] of 14.7 µM, a TGI [19] of 31 µM and a GI50 [20] of 5.44 µM. The TGI [20] was 32.7 µM, the GI50 [21] was 10.6 µM and the TGI [21] was 22.6 µM. For the same compound, the GI50 [22] was 8.02 µM, the TGI [22] was 20.8 µM and the GI50 [23] was 9.17 µM. The TGI [23] was 22.5 µM, the GI50 [24] was 6.91 µM and the TGI [24] was 20.8 µM. For the same compound, the GI50 [25] was 11.2 µM, the TGI [25] was 27.5 µM and the GI50 [26] was 14.3 µM. For the same compound, the TGI [26] was 36.3 µM, the GI50 [27] was 10.6 µM and the TGI [27] was 28.4 µM. The GI50 [28] was 4.09 µM, the TGI [28] was 22.1 µM and the GI50 [29] was 3.38 µM. It also gave a TGI [29] of 22.3 µM, a GI50 [30] of 2.98 µM and a TGI [30] of 19 µM. For the same compound, the GI50 [31] was 6.38 µM, the TGI [31] was 19 µM and the GI50 [32] was 10.5 µM. The TGI [32] was 22.4 µM, the GI50 [33] was 13.2 µM and the TGI [33] was 25.9 µM. The GI50 [34] was 4.09 µM, the TGI [34] was 15.6 µM and the GI50 [35] was 10.2 µM. The TGI [35] was 23.7 µM, the GI50 [36] was 7.46 µM and the TGI [36] was 49.2 µM. The GI50 [37] was 9.12 µM, the TGI [37] was 23.9 µM and the GI50 [38] was 4.67 µM. For the same compound, the TGI [38] was 22.1 µM, the GI50 [39] was 6.11 µM and the TGI [39] was 21 µM. For the same compound, the GI50 [40] was 8.79 µM, the TGI [40] was 38.5 µM and the GI50 [41] was 6.94 µM. The TGI [41] was 28.6 µM, the GI50 [42] was 4.76 µM and the TGI [42] was 22.8 µM. For the same compound, the GI50 [43] was 10.1 µM, the TGI [43] was 27.3 µM and the GI50 [44] was 4.45 µM. For the same compound, the TGI [44] was 18 µM, the GI50 [45] was 7.83 µM and the TGI [45] was 29.9 µM. The GI50 [46] was 11.4 µM, the TGI [46] was 26.2 µM and the GI50 [47] was 11.3 µM. It also gave a TGI [47] of 38.7 µM, a GI50 [48] of 7.78 µM and a TGI [48] of 31.1 µM. For the same compound, the GI50 [49] was 9.78 µM, the TGI [49] was 27.9 µM and the GI50 [50] was 4.65 µM. For the same compound, the TGI [50] was 39 µM, the GI50 [51] was 2.88 µM and the TGI [51] was 21 µM. The GI50 [52] was 1.38 µM, the TGI [52] was 8.36 µM and the GI50 [53] was 9.37 µM. It also gave a TGI [53] of 21.2 µM, a GI50 [54] of 0.949 µM and a TGI [54] of 19 µM. For the same compound, the GI50 [55] was 3.66 µM, the TGI [55] was 22.6 µM and the GI50 [56] was 2.67 µM. For the same compound, the TGI [56] was 21.1 µM.

— PubChem BioAssay (NCI)
